Data reported in ChEMBL document CHEMBL1139001, “Alkyl-linked bis-THTT derivatives as potent in vitro trypanocidal agents” (Bioorg Med Chem Lett, 2006).

What was measured:
Leishmania donovani = assay: Antiprotozoal activity against Leishmania donovani; type: functional, organism-based
[1] = test system: Trypanosoma brucei rhodesiense; assay: Antitrypanosomal activity against Trypanosoma brucei rhodesiense STIB900; type: functional, organism-based
Plasmodium falciparum = assay: Antiplasmodial activity against Plasmodium falciparum 3D7; type: functional, organism-based
KB = assay: Cytotoxicity against KB cell line; type: functional, cell-based; settings: Homo sapiens
[2] = Therapeutic index (cytotoxicity/antiprotozoal activity); type: cell-based; settings: human, KB cells; read-out: Ratio IC50
[3] = Therapeutic index (cytotoxicity/antitrypanosomal activity); type: cell-based; settings: human, KB cells; read-out: Ratio IC50
[4] = Therapeutic index, ratio of cytotoxicity/antiplasmodial activity; type: cell-based; settings: human, KB cells; read-out: Ratio IC50

| SMILES | IC50 (Leishmania donovani) [µM] | IC50 [1] [µM] | IC50 (Plasmodium falciparum) [µM] | IC50 (KB) [µM] | selectivity ratio [2] | selectivity ratio [3] | selectivity ratio [4] |
| --- | --- | --- | --- | --- | --- | --- | --- |
| CC(C)(CN1CN(C(Cc2ccccc2)C(=O)O)CSC1=S)CN1CN(C(Cc2ccccc2)C(=O)O)CSC1=S (stereo unspecified) | 5.54 | 1.04 | 9.56 | 2.21 | 0.4 | 2.1 | 0.2 |
| NC(=O)CCC(C(=O)O)N1CSC(=S)N(CCCCCCN2CN(C(CCC(N)=O)C(=O)O)CSC2=S)C1 (stereo unspecified) | > 49 | 9.37 | 11 | 52 |  | 5.8 | 4.7 |
| O=C(O)CN1CSC(=S)N(CCCCCCN2CN(CC(=O)O)CSC2=S)C1 | 7.07 | 0.73 | 11 | 8.33 | 1.2 | 11.4 | 0.8 |
| O=C(O)CC(C(=O)O)N1CSC(=S)N(CCCCCCN2CN(C(CC(=O)O)C(=O)O)CSC2=S)C1 (stereo unspecified) | 30.2 | 3.6 | 23.2 | 76.3 |  |  | 0.9 |
| CSCCC(C(=O)O)N1CSC(=S)N(CCCCCCN2CN(C(CCSC)C(=O)O)CSC2=S)C1 (stereo unspecified) | 7.26 | 2.3 | 14.2 | 52.5 | 7.3 | 41.2 | 3.7 |
| O=C(O)C(Cc1ccccc1)N1CSC(=S)N(CCCCCCN2CN(C(Cc3ccccc3)C(=O)O)CSC2=S)C1 (stereo unspecified) | 5.42 | 0.73 | 9.13 | 5.73 | 1.1 | 7.9 | 0.6 |
| O=C(O)CCN1CSC(=S)N(CCCCCCN2CN(CCC(=O)O)CSC2=S)C1 | 2.18 | 0.56 | 13.1 | 12.3 | 5.6 | 21.8 | 0.9 |
| NC(=O)CC(C(=O)O)N1CSC(=S)N(CCCCCCN2CN(C(CC(N)=O)C(=O)O)CSC2=S)C1 (stereo unspecified) | 19.5 | 5.34 | 39.5 | > 51.7 | > 30 | > 10 | > 2 |
| COc1cc([C@@H]2c3cc4c(cc3[C@H](O)[C@H]3COC(=O)[C@H]23)OCO4)cc(OC)c1OC [PODOFILOX] |  |  |  | 0.0036 |  |  |  |

Second part, led by results:

| IC50 (Leishmania donovani) [µM] | IC50 [1] [µM] | IC50 (Plasmodium falciparum) [µM] | SMILES | IC50 (KB) [µM] | selectivity ratio [2] | selectivity ratio [3] | selectivity ratio [4] |
| --- | --- | --- | --- | --- | --- | --- | --- |
| 6.47 | 0.36 | 16.9 | O=C(O)CCCCN1CSC(=S)N(CCCCCCN2CN(CCCCC(=O)O)CSC2=S)C1 | 16.1 | 2.4 | 44.4 | 1 |
| 6.85 | 2.88 | 3.76 | CC(C)(CN1CN(CC(=O)O)CSC1=S)CN1CN(CC(=O)O)CSC1=S | 5.09 | 0.7 | 1.7 | 1.3 |
| 24.3 | 4.27 | 43.3 | O=C(O)CCCN1CSC(=S)N(CCCCCCN2CN(CCCC(=O)O)CSC2=S)C1 | 11.7 |  |  | 2 |
| 7.27 | 2.48 | 9.04 | CC(C)(CN1CN(CCCCC(=O)O)CSC1=S)CN1CN(CCCCC(=O)O)CSC1=S | 8.16 | 1.1 | 3.4 | 0.9 |
|  | 0.011 |  | N=C(N)c1ccc(OCCCCCOc2ccc(C(=N)N)cc2)cc1 [PENTAMIDINE] |  |  |  |  |
